3 molecules from patent publication US12298319B2, “Method for measuring alpha value of muscarinic M1 receptor positive allosteric modulators” (Takeda Pharmaceutical Company Limited, priority 2017, dated 2025) can be followed below.

Data set [1] has as its system scopolamine-induced cognitive deficits in rats. Description: Novel object recognition task (NORT), scopolamine-induced memory deficits. Format: in vivo, rat. The method, then:
On the day before testing, Long Evans rats were allowed to habituate to the behavioral test room environment for over 1 h, and then they were allowed to habituate to the empty test box (a gray-colored polyvinyl chloride box (40×40×50 cm)) for 10 min individually. Testing was comprised of two 3-min trials called the acquisition and the retention trials. These trials were separated by a given inter-trial interval (ITI). On the testing day, in the acquisition trial, rats were allowed to explore two identical objects (A1 and A2) for 3 min. In the retention trial, rats were again allowed to explore a familiar object (A3) and a novel object (B) for 3 min. The object exploration was defined as rats' licking, sniffing or touching the object with limbs while sniffing. Leaning against the object to look upward, standing or sitting on the object was excluded. The exploration time of each object (A1, A2, A3 and B) in each trial was measured manually. Novel discrimination index (NDI) was calculated using the following equation: novel object interaction/total interaction×100(%).
The acquisition and the retention trials were separated by 4 h ITI. […] Scopolamine (0.1 mg/kg) was administered subcutaneously 30 min prior to the acquisition trial.
(§1) The acquisition and the retention trials were separated by 4 h ITI.
as §1

The subject of a further data set is rats. Description: Assessment of cholinergic side effects in rats. The method, then: SD Rats were placed individually into observation cages and acclimated for at least 1 h. […] The severity of diarrhea was scored as follows: 0, normal pellets; 1, wet but formed feces; 2, swollen or mucous feces; 3, severe watery diarrhea. For diarrhea, the number of rats and mice, in which more than or equal to 2 was scored, was counted. For fasciculation, the number of rats with marked fasciculation of both the upper and lower limbs was counted. For lacrimation, the number of rats, in which moderate to marked discharge (severer lacrimation than fluid around eyes) was induced, was counted. For salivation, the number of rats with severe salivation, but not just noticeably wet around mouth, was induced was counted. The maximum score during the observation was adopted.
For diarrhea, the number of rats scored more than or equal to 2 was counted. For fasciculation, the number of rats with marked fasciculation of both the upper and lower limbs was counted. For lacrimation, the number of rats in which moderate to marked discharge (severer lacrimation than fluid around eyes) was counted. For salivation, the number of rats with severe salivation, but not just noticeably wet around mouth, was counted. The maximum score during the observation was adopted. Data were presented as the number of incidence per total rats.
For diarrhea, the number of rats in which loose or mucous stool, or diarrhea was induced was counted. For fasciculation, the number of rats with marked fasciculation of both the upper and lower limbs was counted. For lacrimation, the number of rats in which moderate to marked discharge (severe lacrimation than fluid around eyes) was caused was counted. For salivation, the number of rats with severe salivation, but not just noticeably wet around mouth was counted. The maximum score during the observation was adopted. Data were presented as the number of incidence per total rats.

Data set [2] deals with layer 5 pyramidal neurons. As to the kind of experiment: Electrophysiology, current clamp of layer 5 pyramidal neurons in mPFC slices. Format: cell-based, mouse. The conditions noted are these: bath application, Compound D at 10 μM. How it is done:
Experiments were performed on coronal brain slices of the medial prefrontal cortex (mPFC) from 4-week-old male C57BL/6 mice. The animals were quickly sacrificed and the brain was placed in an ice-cold NMDG artificial cerebrospinal fluid (ACSF) (in mM): NMDG, 92; KCl, 2.5; CaCl2, 0.5; NaH2PO4, 1.25; MgSO4, 6; NaHCO3, 30; glucose, 25; HEPES, 20; thiourea, 2; Na-ascorbate, 5; and Na-pyruvate, 3) (Ting J. T. et al., Methods Mol Biol. 2014; 1183:221-42). Slices were cut at a thickness of 300 μm with a vibroslicer. Slices were initially transferred to a holding chamber containing NMDG aCSF for 15 minutes at 34° C. Slices were then transferred to a room temperature holding chamber for at least 1 h containing HEPES aCSF (in mM): NMDG, 92; KCl, 2.5; CaCl2, 2; NaH2PO4, 1.25; MgSO4, 2; NaHCO3, 30; glucose, 25; HEPES, 20; thiourea, 2; Na-ascorbate, 5; and Na-pyruvate, 3). Subsequently, the slices were transferred to the recording chamber, in which they were submerged and perfused with aCSF containing the following (in mM): NaCl, 124; KCl, 5; NaH2PO4, 1.2; MgCl2, 1.5; CaCl2, 2.5; glucose, 10; and NaHCO3, 24), at a flow rate of 1-2 ml/min. All buffers were continuously bubbled and saturated with carbogen (95% O2/5% CO2). Current clamp recordings were carried out at 32-33° C. from visually identified pyramidal neurons from layer 5 using a borosilicate pipette (5-7 MΩ) filled with intracellular solution (in mM): K-gluconate, 135; KCl, 4; HEPES, 10; EGTA, 0.2; MgATP, 4; Na2GTP, 0.3; pH 7.3 with KOH). Signals were acquired using a Multiclamp 700B amplifier and a Digidata 1440A interface board (Molecular Devices Japan, Tokyo, Japan), filtered between 2 kHz, sampled at 10 kHz, and analyzed with pClamp10 software.
M1Rs are known to contribute to the three cholinergic effects in layer 5 pyramidal neurons: the resting membrane potential (RMP) and physiological responses such as the after hyperpolarization (AHP) the after depolarization (ADP) that typically follow brief periods of action potential generation (Gulledge et al., J. Neurosci. 2009 Aug. 5; 29(31): 9888-9902). To investigate effects of M1 PAMs with different n value on brain function, cholinergic excitation by Compound D and Compound C were assessed. First, the muscarinic receptor agonist carbachol ([…] for 10 min) was tested by bath application (FIG. 13-A, FIG. 13-B, FIG. 13-C).

Where [3] appears, read: carbachol 10 M [sic] for 10 min.

Where a name gives a salt, the structure may show the parent alone.

Take `CCN(C)C(=O)Oc1cccc([C@H](C)N(C)C)c1` [Rivastigmine, rivastigmine]: in data set [1] (scopolamine-treated rats, rivastigmine 0.1 mg/kg i.p. alone, Example 31), the NDI was 53.9%.

As for `COc1cc2c(cc1OC)C(=O)C(CC1CCN(Cc3ccccc3)CC1)C2` (stereo not shown) [Donepezil, Donepezil hydrochloride], the “NDI in NORT, scopolamine-induced deficits” value in data set [1] (0.3 and 1 mg/kg p.o., rats, P≤0.025) was “significantly increased NDI”. The “minimal efficacy dose in rats (cognitive improvement)” value in data set [1] (NORT, scopolamine-treated rats, p.o.) was 0.3 mg/kg. Moreover, the NDI in data set [1] (scopolamine-treated rats, 0.1 mg/kg p.o. alone, Example 28) turned out to be 52.7%; in data set [1] (scopolamine-treated rats, donepezil 0.1 mg/kg p.o. alone, Example 29), 49.5%. The “cholinergic side effects in addition to diarrhea” value in the data set on rats (10 mg/kg p.o., rats) was “induced salivation, myosis, and fasciculation”. Moreover, in the data set with rats (P≤0.025 at 10 and 30 mg/kg p.o.), the “diarrhea induction in rats (score)” value was “induced diarrhea dose-dependently”.

Take `C[N+](C)(C)CCOC(N)=O` [Carbachol, carbachol]: in data set [2] (setting [3]), the “after hyperpolarization (AHP)” value is reported as “suppressed AHP” and the “resting membrane potential (RMP)” value is recorded as “induced depolarization of the RMP”. Also, the “after depolarization (ADP)” value in data set [2] (carbachol for 10 min as printed) is listed as “produced an ADP potential”.
